This assay has as its target Xanthine dehydrogenase/oxidase (Homo sapiens, UniProt P47989). Put plainly: xanthine oxidase activity: Xanthine oxidase inhibition was determined using a standard fluorescence-based assay for xanthine oxidase activity (McHale A, Grimes H, Coughlan M P: Int J Biochem. 10:317-9, 1979) with minor variations. […] Experiments on test compounds were performed in triplicate in multi-well plates using 10 concentrations of each compound that ranged over a 3-fold dilution.

The structures appear in SMILES notation. Some results are limits rather than exact numbers.

Xanthine dehydrogenase/oxidase, sequence (P47989 whole entry): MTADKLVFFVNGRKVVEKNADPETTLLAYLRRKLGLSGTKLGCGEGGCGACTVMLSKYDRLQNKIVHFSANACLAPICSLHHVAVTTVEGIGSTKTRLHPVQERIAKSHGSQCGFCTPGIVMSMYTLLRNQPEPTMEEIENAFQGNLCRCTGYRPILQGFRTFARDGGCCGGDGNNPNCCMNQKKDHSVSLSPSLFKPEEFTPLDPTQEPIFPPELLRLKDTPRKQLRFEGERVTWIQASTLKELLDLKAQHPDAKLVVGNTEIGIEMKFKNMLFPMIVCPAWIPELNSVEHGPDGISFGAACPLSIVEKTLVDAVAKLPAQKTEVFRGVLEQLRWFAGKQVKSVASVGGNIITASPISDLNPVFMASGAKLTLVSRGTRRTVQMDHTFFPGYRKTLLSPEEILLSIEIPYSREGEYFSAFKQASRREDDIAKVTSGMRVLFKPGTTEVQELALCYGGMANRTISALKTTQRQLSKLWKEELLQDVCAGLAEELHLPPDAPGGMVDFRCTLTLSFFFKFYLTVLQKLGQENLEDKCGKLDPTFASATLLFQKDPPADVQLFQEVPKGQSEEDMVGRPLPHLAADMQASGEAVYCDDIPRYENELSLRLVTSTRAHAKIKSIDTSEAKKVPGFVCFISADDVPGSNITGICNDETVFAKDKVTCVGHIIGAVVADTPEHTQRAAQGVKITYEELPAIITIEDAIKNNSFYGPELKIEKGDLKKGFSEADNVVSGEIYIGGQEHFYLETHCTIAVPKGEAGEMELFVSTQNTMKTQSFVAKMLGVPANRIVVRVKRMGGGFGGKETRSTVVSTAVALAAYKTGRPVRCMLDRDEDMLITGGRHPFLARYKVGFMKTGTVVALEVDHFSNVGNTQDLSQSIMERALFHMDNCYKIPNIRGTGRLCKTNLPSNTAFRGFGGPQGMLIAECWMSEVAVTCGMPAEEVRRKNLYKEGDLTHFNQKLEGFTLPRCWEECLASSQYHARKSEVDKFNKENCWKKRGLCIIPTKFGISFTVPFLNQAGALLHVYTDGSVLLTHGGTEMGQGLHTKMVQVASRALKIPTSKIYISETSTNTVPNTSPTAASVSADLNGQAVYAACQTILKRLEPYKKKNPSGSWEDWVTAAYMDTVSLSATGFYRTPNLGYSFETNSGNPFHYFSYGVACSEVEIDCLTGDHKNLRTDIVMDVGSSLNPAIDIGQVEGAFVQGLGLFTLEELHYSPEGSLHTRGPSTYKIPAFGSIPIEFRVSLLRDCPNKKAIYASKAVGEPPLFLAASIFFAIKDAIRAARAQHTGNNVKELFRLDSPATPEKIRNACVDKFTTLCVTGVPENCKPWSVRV

One may read the IC50 as the concentration needed to halve the response being measured. Low readings indicate greater potency in that assay, high ones weaker potency in that assay. As for `O=C(O)CSc1nnc(Br)n1-c1ccc(C2CC2)c2ccccc12`, the IC50 is greater than 300 µM.

The values are drawn from ChEMBL document CHEMBL5727898, “Compounds and their use for reducing uric acid levels” (2020).
